assay: Solubility in water (four-stage evaluation); format: physicochemical

solubility | Structure (SMILES) | Solubility in Water
> 500 mg/mL | C1COCCN1 [1 Morpholine] | 
> 500 mg/mL | Cc1c(C(C)(C)C)cc(C(C)(C)C)c(O)c1C(=O)O [1 Sodium] | 
 | Cc1c(C(C)(C)c2ccccc2)cc(C(C)(C)C)c(O)c1C(=O)O [2-2 Morpholine] | .circleincircle. (solubility =not less than 50%)
> 500 mg/mL | Cc1c(C(C)(C)c2ccccc2)cc(C(C)(C)C)c(O)c1C(=O)O [2-2 Sodium] | 
> 500 mg/mL | CCC(C)(C)c1cc(C(C)(C)CC)c(O)c(C(=O)O)c1C [3-2 Sodium] | 
 | Cc1c(C(C)(C)C)cc(C(C)(C)CC(C)(C)C)c(O)c1C(=O)O [4-3 Morpholine] | .circleincircle. (solubility =not less than 50%)
> 500 mg/mL | Cc1c(C(C)(C)C)cc(C(C)(C)CC(C)(C)C)c(O)c1C(=O)O [4-3 Sodium] | 
 | Cc1c(C(C)(C)C)cc(C(C)(C)c2ccccc2)c(O)c1C(=O)O [5-3 Morpholine] | .circleincircle. (solubility =not less than 50%)
> 500 mg/mL | Cc1c(C(C)(C)C)cc(C(C)(C)c2ccccc2)c(O)c1C(=O)O [5-3 Sodium] | 
> 500 mg/mL | Cc1cc(C(C)(C)c2ccccc2)c(C)c(C(=O)O)c1O [11-2 Sodium] | 
> 500 mg/mL | Cc1c(C(C)(C)c2ccccc2)cc(C(C)C)c(O)c1C(=O)O [12-2 Sodium] | 
200 to 500 mg/mL | Cc1cc(C(C)(C)c2ccccc2)cc(C(=O)O)c1O [(2) Sodium, 3-methyl-5-(α, α-dimethylbenzyl)salicylic acid, reference compound] | 

assay: Solubility in toluene (four-stage evaluation); format: physicochemical

Structure (SMILES) | Solubility in Toluene
Cc1c(C(C)(C)C)cc(C(C)(C)C)c(O)c1C(=O)O [1 Free Acid] | .largecircle. (solubility =not less than 20% to less than 50%)
C1COCCN1 [1 Morpholine] | .largecircle. (solubility =not less than 20% to less than 50%)
Cc1c(C(C)(C)c2ccccc2)cc(C(C)(C)C)c(O)c1C(=O)O [2-2 Free Acid] | .circleincircle. (solubility =not less than 50%)
Cc1c(C(C)(C)c2ccccc2)cc(C(C)(C)C)c(O)c1C(=O)O [2-2 Morpholine] | .largecircle. (solubility =not less than 20% to less than 50%)
CCC(C)(C)c1cc(C(C)(C)CC)c(O)c(C(=O)O)c1C [3-2 Free Acid] | .largecircle. (solubility =not less than 20% to less than 50%)
Cc1c(C(C)(C)C)cc(C(C)(C)CC(C)(C)C)c(O)c1C(=O)O [4-3 Free Acid] | .circleincircle. (solubility =not less than 50%)
Cc1c(C(C)(C)C)cc(C(C)(C)CC(C)(C)C)c(O)c1C(=O)O [4-3 Morpholine] | .largecircle. (solubility =not less than 20% to less than 50%)
Cc1c(C(C)(C)C)cc(C(C)(C)c2ccccc2)c(O)c1C(=O)O [5-3 Free Acid] | .circleincircle. (solubility =not less than 50%)
Cc1c(C(C)(C)C)cc(C(C)(C)c2ccccc2)c(O)c1C(=O)O [5-3 Morpholine] | .largecircle. (solubility =not less than 20% to less than 50%)
Cc1cc(C(C)(C)c2ccccc2)c(C)c(C(=O)O)c1O [11-2 Free Acid] | .largecircle. (solubility =not less than 20% to less than 50%)
Cc1c(C(C)(C)c2ccccc2)cc(C(C)C)c(O)c1C(=O)O [12-2 Free Acid] | .circleincircle. (solubility =not less than 50%)
Cc1cc(C(C)(C)c2ccccc2)cc(C(=O)O)c1O [(2) Free Acid, 3-methyl-5-(α,α-dimethyllbenzyl)salicylic acid, reference compound] | Δ (solubility =not less than 5% to less than 20%)

From patent US5049685A, “Nuclear substituted salicylic acids and their salts” (Sanko Kaihatsu Kagaku Kenkyusho, priority 1988, dated 1991)
